# Legend:
# [1] = molecular target: T1, endogenous autotaxin (Homo sapiens, UniProt Q13822); experiment: Reduction of LPA in the Presence of Human Plasma; assay type: biochemical; conditions: 90% pooled human plasma, 3 hours at 37° C., total LPA by mass spec; arithmetic mean
# T1 construct: The increased endogenous LPC levels are cleaved by endogenous autotaxin; tissue Lampire Biologicals; host or cells: pooled human plasma (healthy female donors, sodium heparin)
# [2] = molecular target: T2, recombinant human autotaxin (Homo sapiens, UniProt Q13822); experiment: Inhibition of Autotaxin as Measured by Choline Release; assay type: biochemical; conditions: LPC 16:0 30 μM, 37° C. 1 hour, arithmetic mean
# T2 construct: full length human autotaxin with a C-terminal His tag transfected into 293E cells; His tag (C); made in house; host or cells: 293E cells
structure (smiles),measurement,setting,value
"O=C(COCCc1cnn[nH]1)N1CCc2nc(NC3Cc4ccccc4C3)ncc2C1 [Example 1 and 1a, 1-[2-(2,3-dihydro-1H-inden-2-ylamino)-7,8-dihydropyrido[4,3-d]pyrimidin-6(5H)-yl]-2-[2-(1H-1,2,3-triazol-4-yl)ethoxy]ethanone]",IC50,[1],10 nM
same,IC50,[2],5.7 nM

# Source: patent US8969555B2, “Bicyclic pyrimidine compounds” (Eli Lilly and Company, priority 2013, dated 2015)
